“And” between values parts separate entries of the source, which are not always exact repeats. Equal values may be shown once. Read-outs that look alike come from different tables or passages of the source. Marks after values point to notes of the source that are not given here.
How the values were obtained:
[1] = Thermal stability (TG/DTG): decomposition onset and maximum mass-loss rate temperature
Description: In Figure 5, the thermal stability of ibuprofen and amino acid isopropyl ester ibuprofenates was determined and compared. All TG, DTG, and c-DTA curves are in the Supplementary Materials (Figures S87–S100). The decomposition onset temperature (Tonset) and the temperature of the maximum rate of mass loss (Tmax) were determined.

[2] = 24 h penetration, n = 3
[3] = In vitro skin permeation, Franz diffusion cells; settings: for Q%24 h, the percentage of the applied dose permeated after 24 h / Cumulative Permeation Mass / LT, lag time: n = 3; for Q%24 h, the percentage of the applied dose permeated after 24 h / Cumulative Permeation Mass: 24 h; for EF, enhancement factor: relative to IBU; for JSS, steady-state flux: saturated solution in PBS pH 7.4, n = 3
[4] = Solubility in organic solvents by modified Vogel's method; settings: 25 °C
[5] = n-octanol-water partition coefficient, shake flask method; settings: for Log P (n-octanol-water partition coefficient): shake flask, 25 °C
[6] = Solubility (saturation concentration) in deionised water and PBS pH 7.4, HPLC; settings: for Solubility in Phosphate Buffer pH = 7.4: PBS pH 7.4, 32 °C; for Solubility in Water: 25 °C
[7] = 37 °C, cited from earlier work
[8] = design: method as in PMID 35516534; settings: determined log P range; cited from earlier work
[9] = saturated solution in PBS pH 7.4, mass of compound
[10] = saturated solution in PBS pH 7.4, mass of ibuprofen

SMILES | Tonset, the onset temperature of the thermal degradation [1] [°C] | Accumulation in the skin [2] [µg IBU g^−1] | Q%24 h, the percentage of the applied dose permeated after 24 h [3] [%] | Cumulative Permeation Mass [3, 9] | Cumulative Permeation Mass [3, 10] | LT, lag time [3] [h] | EF, enhancement factor [3] | JSS, steady-state flux [3] | Solubility in DMSO [4] | Solubility in chloroform [4] | Solubility in dichloromethane [4] | Solubility in diethyl ether [4] | Solubility in ethanol [4] | Solubility in ethyl acetate [4] | Solubility in n-hexane [4] | Solubility in toluene [4] | Log P (n-octanol-water partition coefficient) [5] | Solubility in Phosphate Buffer pH = 7.4 ([6]; g of active compound (IBU)) [g IBU∙dm^−3] | Solubility in Phosphate Buffer pH = 7.4 ([6]; g of compound) [g∙dm^−3] | Solubility in Water ([6]; g of active compound (IBU)) [g IBU∙dm^−3] | other results
CC(C)Cc1ccc(C(C)C(=O)O)cc1.CC[C@H](C)[C@H](N)C(=O)OC(C)C [[L-IleOiPr][IBU], L-isoleucine isopropyl ester ibuprofenate] | 105.2 | 646.293 ± 123.070 | 2.318 ± 0.118 | 173.888 ± 8.815 ^b µg·cm^−2 | 94.512 ± 4.791 ^b µg IBU·cm^−2 | 1.617 ± 0.057 | 0.31 | 9.545 µg IBU cm^−2 h^−1 and 9.545 ± 0.239 µg IBU cm^−2 h^−1 | + (soluble >100 mg cm^−3) | + (soluble >100 mg cm^−3) | + (soluble >100 mg cm^−3) | +/− (partially soluble 33–100 mg cm^−3) | + (soluble >100 mg cm^−3) | + (soluble >100 mg cm^−3) | − (insoluble <33 mg cm^−3) | + (soluble >100 mg cm^−3) | 1.652 ± 0.008 | 2.562 ± 0.010 | 4.713 ± 0.018 | 1.483 ± 0.098 | Solubility in Water ([6]; g of compound): 2.729 ± 0.180 g∙dm^−3
CC(C)Cc1ccc(C(C)C(=O)O)cc1.CC(C)OC(=O)C[C@H](N)C(=O)OC(C)C [[L-Asp(OiPr)2][IBU], L-aspartic acid isopropyl ester ibuprofenate] | 141.7 | 406.961 ± 17.799 | 27.307 ± 2.851 | 812.658 ± 12.545 ^b µg·cm^−2 | 395.800 ± 41.320 ^b µg IBU·cm^−2 | 1.010 ± 0.054 | 3.69 | 55.063 ± 1.425 µg IBU cm^−2 h^−1 | + (soluble >100 mg cm^−3) | + (soluble >100 mg cm^−3) | + (soluble >100 mg cm^−3) | +/− (partially soluble 33–100 mg cm^−3) | + (soluble >100 mg cm^−3) | + (soluble >100 mg cm^−3) | − (insoluble <33 mg cm^−3) | + (soluble >100 mg cm^−3) | 1.506 ± 0.001 | 1.449 ± 0.009 | 2.976 ± 0.018 | 1.159 ± 0.001 | Solubility in Water ([6]; g of compound): 2.380 ± 0.003 g∙dm^−3
CC(C)Cc1ccc(C(C)C(=O)O)cc1 (racemic) [IBU, (RS)-2-(4-(2-methylpropyl)phenyl)propanoic acid, reference compound] |  |  | 7.408 ± 0.648 | 32.001 ± 3.167 ^a µg·cm^−2 | 32.001 ± 2.801 ^a µg IBU·cm^−2 | 1.399 ± 0.145 | 1.00 | 3.017 ± 0.209 µg IBU cm^−2 h^−1 |  |  |  |  |  |  |  |  |  |  |  |  | Tonset, the onset temperature of the thermal degradation ([1]; TG): 189.8 °C; solubility ([7]; pH 1): 0.038 mg·cm^−3; solubility ([7]; pH 4.5): 0.084 mg·cm^−3; solubility ([7]; pH 5.5): 0.685 mg·cm^−3; solubility ([7]; pH 6.8): 3.37 mg·cm^−3; log P [8]: 2.41–4.00; Papp ([3]; pig, pH 7.4): 1.94 ×10⁻⁶ cm/s; JSS, steady-state flux ([3]; listed as ibuprofen): 3.017 µg IBU cm^−2 h^−1; logP at 3 h ([5]; n-octanol/water): 3.208 ± 0.002
